Experimental data as given in patent US8394829B2, “Bi-functional quinoline analogs” (Gilead Sciences, Inc., priority 2010, dated 2013).

Key:
[1] = tested on: LPS-induced TNF-α release from human peripheral blood mononuclear cells (PBMC); test: Inhibition of LPS-induced TNF-α release from human PBMC; format: cell-based; details: LPS 0.4 ng/mL, 6 h, presence or absence of ICI-118551 not given
Text: Inhibition of Lipopolysaccharide (LPS)-Induced Tumour Necrosis Factor Alpha (TNF-α) Release from Human Peripheral Blood Mononuclear Cells (PBMC)
Human whole blood was drawn from donors and cell purification initiated within two hours. Peripheral blood mononuclear cells (PBMC) were purified using a standard Ficoll gradient purification technique and aliquoted at a concentration of 100,000 cells/well in 96 well plates. Beta-2 adrenoreceptor agonists are also anti-inflammatory for some immune cells expressing the receptor and in this assay they can inhibit tumor necrosis factor-alpha (TNF-α) production. Therefore PBMC were pre-incubated for 30 min in the presence of the beta-2 adrenoreceptor antagonist ICI-118551 [3-(isopropylamino)-1-[(7-methyl-4-indanyl)oxy]butan-2-ol] (10 μM) to determine the PDE4 directed activity of test compounds, and in the absence of ICI-118551 for the combined PDE4 and beta-2 receptor directed activity. Test compounds were dissolved in DMSO and diluted in buffer (final DMSO concentration of 0.1% v/v) and were then added to the cell suspensions and pre-incubated for a further 1 h at 37° C. LPS solution was then added (0.4 ng/mL) and the cells incubated for a further 6 h. At the end of the incubation period the cell supernatants were collected and TNF-α was measured using a Procarta Cytokine Assay Kit (Affymetrix, Santa Clara, Calif.) according to the manufacturers' instructions. Data were analyzed using MiraiBio Masterplex QT v4.0 software (MasterPlex Version 1.0.1.18 Copyright 2008, Hitachi Software Engineering Co., Ltd) and used to extrapolate Mean Fluorescence Intensity (MFI) into concentrations of TNF-α and mean values from replicate wells were determined. Inhibition curves were plotted using a nonlinear curve fit employing a single-site binding model to determine the IC50 value for each test compound in the presence or absence of ICI-118551 using GraphPad Prism 5 for Windows, version 5.02 (GraphPad Software, San Diego Calif.).
EC50 determinations for the compounds presented above are seen in the fourth column of Table 1 (PBMC TNF EC50).

[2] = target: T1, human recombinant beta-2 adrenoreceptors (Homo sapiens, UniProt P07550); test: Functional agonism of human recombinant beta-2 adrenoreceptors expressed in CHO cells (cAMP HTRF); format: cell-based; details: CHO cells expressing human beta-2 adrenoreceptors, cAMP elevation, 30 min
T1 construct: expressed in transfected cells; host or cells: CHO cells
T1 sequence (P07550 whole entry): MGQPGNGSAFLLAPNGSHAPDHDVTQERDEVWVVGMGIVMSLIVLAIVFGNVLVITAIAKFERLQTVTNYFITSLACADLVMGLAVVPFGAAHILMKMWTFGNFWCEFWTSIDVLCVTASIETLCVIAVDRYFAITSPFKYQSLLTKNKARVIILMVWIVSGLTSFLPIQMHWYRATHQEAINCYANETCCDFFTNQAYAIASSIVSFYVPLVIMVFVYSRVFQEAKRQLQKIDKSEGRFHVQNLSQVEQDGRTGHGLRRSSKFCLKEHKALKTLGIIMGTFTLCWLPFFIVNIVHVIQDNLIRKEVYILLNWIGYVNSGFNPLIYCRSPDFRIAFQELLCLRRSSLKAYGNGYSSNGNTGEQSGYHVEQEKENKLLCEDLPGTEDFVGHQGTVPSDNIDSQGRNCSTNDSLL
Protocol: Functional Agonism of Human Recombinant Beta-2 Adrenoreceptors Expressed in Chinese Hamster Oocytes (CHO)
Test compounds were incubated for 30 min with CHO cells expressing the human recombinant beta-2 adrenoreceptors. Agonism of the receptor was measured by the elevation of intracellular cyclic-AMP over control levels detected using a homogeneous time resolved fluorescence (HTRF) format. Compounds were determined to be “full” or “partial” agonists based on the maximum level of cAMP accumulated compared to the control compound isoproterenol which is a full agonist in this assay system. Concentration response curves were generated for test compounds and the EC50 (molar concentration of the agonist which produced 50% of the maximal response for that compound) was determined. These assays were performed using a protocol based on the original description of the assay by Baker, J. G. (2005) Brit. J. Pharmacol.; 144:317-322.
EC50 determinations for the compounds presented above are seen in the third column of Table 1 (Beta 2 EC50).

[3] = target: T1, human recombinant beta-2 adrenoreceptors; test: Beta-2 adrenoceptor binding assay ([3H](−)CGP-12177 displacement); details: CHO cells expressing human beta-2 adrenoreceptors, [3H](−)CGP-12177 0.3 nM, 120 min
Protocol: Beta-2 Adrenoceptor Binding Assay
Test compounds were incubated for 120 min with Chinese hamster oocyte (CHO) cells expressing the human recombinant beta-2 adrenoreceptors. Binding of test compounds to the beta-2 adrenoreceptors was determined by measuring the displacement of the radiolabeled ligand [^3H](−)CGP-12177 (0.3 nM) from the receptor measured by a scintillation counting. Concentration response curves were generated for test compounds and the IC50 (molar concentration of the compound which produced 50% inhibition for the maximal response for that compound) was determined. These assays were performed using a protocol based on the original description of the assay by Joseph et al., (2004) Naun.-Sch. Arch. Pharm.; 369:525-532.
IC50 determinations for the compounds presented above are seen in the second column of Table 1 (Beta 2 IC50).

Human recombinant PDE4B2 = target: T2, Human recombinant PDE4B2 (Homo sapiens, UniProt Q07343); test: Inhibition of PDE4B4 enzyme activity (PDE Glo Assay); format: biochemical; details: human recombinant PDE4B2, 50 nM cAMP; read-out: PDE4 IC50
T2 construct: purchased BPS Bioscience
T2 sequence (Q07343 1-564 isoform Q07343-2): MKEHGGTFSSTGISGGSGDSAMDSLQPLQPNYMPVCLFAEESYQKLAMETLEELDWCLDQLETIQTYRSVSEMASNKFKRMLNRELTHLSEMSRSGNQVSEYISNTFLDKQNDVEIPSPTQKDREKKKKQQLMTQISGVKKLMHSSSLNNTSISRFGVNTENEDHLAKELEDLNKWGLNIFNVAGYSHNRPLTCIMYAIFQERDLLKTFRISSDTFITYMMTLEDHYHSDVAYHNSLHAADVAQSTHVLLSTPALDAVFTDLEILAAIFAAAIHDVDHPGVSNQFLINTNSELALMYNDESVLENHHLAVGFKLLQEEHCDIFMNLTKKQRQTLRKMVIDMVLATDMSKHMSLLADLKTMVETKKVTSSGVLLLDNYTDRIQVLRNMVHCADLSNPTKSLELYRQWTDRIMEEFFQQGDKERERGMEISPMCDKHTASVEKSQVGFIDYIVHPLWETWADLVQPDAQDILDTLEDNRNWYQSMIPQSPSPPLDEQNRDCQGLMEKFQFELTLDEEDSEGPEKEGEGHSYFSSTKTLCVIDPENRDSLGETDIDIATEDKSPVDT
Protocol: Biological Examples Inhibition of PDE4B4 Enzyme Activity
The inhibitory activity of test compounds were determined using the PDE Glo Assay (Promega, V1361). The PDE-Glo Reaction Buffer was prepared (1 mL 5× buffer+4 mL water) and 150 nM solution of test compound dissolved in the Reaction Buffer, followed by 1:3 serial dilutions into Reaction Buffer. […] Human recombinant PDE4B2 (BPS Bioscience) was added to test compound in Reaction Buffer at a concentration of 0.12 nM per reaction. The enzyme and test compound were pre-incubated together at rt for 10 min. 50 nM of the enzyme substrate cAMP was then added to initiate the enzyme reaction, with the reaction terminated after one hour. Termination Buffer (1 mL 5× termination buffer+3.9 mL water+100 μL of 100 mM IBMX (ICN Chemicals, in DMSO)), was added to each reaction well to terminate the reaction. Detection Buffer (1 mL 5×PDE-Glo Detection buffer+3.96 mL water+40 μL PKA (supplied in kit)) was added to the cAMP-enzyme-test compound mix and this secondary reaction proceeded for 20 minutes at rt. An equal volume of Kinase Glo Reagent was then added to the reaction mixture and after 10 min luminescence was measured using a luminometer (EnVision, 0.1 sec read for luminescence). Luminescence values were […] related to levels of cAMP in the reaction mixture. Data were plotted as relative light units (RLU) versus test compound concentration and the IC50 determined using GraphPad Prism 5.0, using a nonlinear curve fit in a single-site binding model.
IC50 determinations for the compounds presented above are seen in the first column of Table 1 (PDE4IC50).

SMILES	EC50 [2] [nM]	IC50 [3] [nM]	IC50 (Human recombinant PDE4B2) [nM]	EC50 [1] [nM]
COc1cccc(Nc2c(C(N)=O)cnc3c(C)cc(S(=O)(=O)c4ccc(-c5ccc(CNC[C@H](O)c6ccc(O)c7[nH]c(=O)ccc67)cc5)cc4)cc23)c1 [Example 48, (R)-6-((4′-(((2-hydroxy-2-(8-hydroxy-2-oxo-1,2-dihydroquinolin-5-yl)ethyl)amino)methyl)-[1,1′-biphenyl]-4-yl)sulfonyl)-4-((3-methoxyphenyl)amino)-8-methylquinoline-3-carboxamide]	< 100	< 100	< 100	< 100
COc1cccc(Nc2c(C(N)=O)cnc3c(C)cc(S(=O)(=O)c4cccc(C(=O)Nc5ccc(-c6ccc(CCCCNC[C@H](O)c7ccc(O)c8c7OCC(=O)N8)cc6)cc5)c4)cc23)c1 [Example 21, (R)-6-((3-((4′-(4-((2-hydroxy-2-(5-hydroxy-3-oxo-3,4-dihydro-2H-benzo[b][1,4]oxazin-8-yl)ethyl)amino)butyl)-(1,1′-biphenyl]-4-yl)carbamoyl)phenyl)sulfonyl)-4-((3-methoxyphenyl)amino)-8-methylquinoline-3-carboxamide]		< 100		< 100
COc1cccc(Nc2c(C(N)=O)cnc3c(C)cc(S(=O)(=O)c4cccc(-c5ccc(CCCNC[C@H](O)c6ccc(O)c7c6OCC(=O)N7)cc5)c4)cc23)c1 [Example 50, (R)-6-((4′-(3-((2-hydroxy-2-(5-hydroxy-3-oxo-3,4-dihydro-2H-benzo[b][1,4]oxazin-8-yl)ethyl)amino)propyl)-[1,1′-biphenyl]-3-yl)sulfonyl)-4-((3-methoxyphenyl)amino)-8-methylquinoline-3-carboxamide]		< 100		< 100
COc1cccc(Nc2c(C(N)=O)cnc3c(C)cc(S(=O)(=O)c4cccc(C(=O)Nc5ccc(C#CCCCNC[C@H](O)c6ccc(O)c7c6OCC(=O)N7)c(C)c5)c4)cc23)c1 [Example 36, (R)-6-((3-((4-(5-((2-hydroxy-2-(5-hydroxy-3-oxo-3,4-dihydro-2H-benzo[b][1,4]oxazin-8-yl)ethyl)amino)pent-1-yn-1-yl)-3-methylphenyl)carbamoyl)phenyl)sulfonyl)-4-((3-methoxyphenyl)amino)-8-methylquinoline-3-carboxamide]		< 100		< 100
COc1cccc(Nc2c(C(N)=O)cnc3c(C)cc(S(=O)(=O)c4cccc(C(=O)Nc5ccc(C#CCCCNC[C@H](O)c6ccc(O)c7c6OCC(=O)N7)cc5C)c4)cc23)c1 [Example 35, (R)-6-((3-((4-(5-((2-hydroxy-2-(5-hydroxy-3-oxo-3,4-dihydro-2H-benzo[b][1,4]oxazin-8-yl)ethyl)amino)pent-1-yn-1-yl)-2-methylphenyl)carbamoyl)phenyl)sulfonyl)-4-((3-methoxyphenyl)amino)-8-methylquinoline-3-carboxamide]	< 100	< 100		< 100

The next lines start with results.

EC50 [2] [nM]	IC50 [3] [nM]	IC50 (Human recombinant PDE4B2) [nM]	SMILES	EC50 [1] [nM]
< 100	< 100		COc1cccc(Nc2c(C(N)=O)cnc3c(C)cc(S(=O)(=O)c4cccc(C(=O)N(C)c5ccc(CCCCOCCCCCCNC[C@H](O)c6ccc(O)c7[nH]c(=O)ccc67)cc5)c4)cc23)c1 [Example 40, (R)-6-((3-((4-(4-((6-((2-hydroxy-2-(8-hydroxy-2-oxo-1,2-dihydroquinolin-5-yl)ethyl)amino)hexyl)oxy)butyl)phenyl)(methyl)carbamoyl)phenyl)sulfonyl)-4-((3-methoxyphenyl)amino)-8-methylquinoline-3-carboxamide]	
< 300	< 100		COc1cccc(Nc2c(C(N)=O)cnc3c(C)cc(S(=O)(=O)c4cccc(C(=O)Nc5ccc(C#CCCCNC[C@H](O)c6cc(O)cc7c6OCC(=O)N7)cc5)c4)cc23)c1 [Example 24, (R)-6-((3-((4-(5-((2-hydroxy-2-(6-hydroxy-3-oxo-3,4-dihydro-2H-benzo[b][1,4]oxazin-8-yl)ethyl)amino)pent-1-yn-1-yl)phenyl)carbamoyl)phenyl)sulfonyl)-4-((3-methoxyphenyl)amino)-8-methylquinoline-3-carboxamide]	< 100
	< 300	< 100	COc1cccc(Nc2c(C(N)=O)cnc3c(C)cc(S(=O)(=O)c4cccc(C(=O)N5CCC(NC[C@H](O)c6ccc(O)c(CO)c6)CC5)c4)cc23)c1 [Example 42, (R)-6-[[3-[[4-[[2-Hydroxy-2-[4-hydroxy-3-(hydroxymethyl)phenyl]ethyl]amino]piperidine-1-yl]carbonyl]phenyl]sulfonyl]-4-[(3-methoxyphenyl)amino]-8-methylquinoline-3-carboxamide]	< 100
< 100	< 100		COc1cccc(Nc2c(C(N)=O)cnc3c(C)cc(S(=O)(=O)c4ccc(-c5ccc(CCCCCNC[C@H](O)c6ccc(O)c7c6OCC(=O)N7)cc5)cc4)cc23)c1 [Example 51, (R)-6-((4′-(5-((2-hydroxy-2-(5-hydroxy-3-oxo-3,4-dihydro-2H-benzo[b][1,4]oxazin-8-yl)ethyl)amino)pentyl)-[1,1′-biphenyl]-4-yl)sulfonyl)-4-((3-methoxyphenyl)amino)-8-methylquinoline-3-carboxamide]	< 100
	< 100		COc1cccc(Nc2c(C(N)=O)cnc3c(C)cc(S(=O)(=O)c4ccc(-c5ccc(CCCNC[C@H](O)c6ccc(O)c7c6OCC(=O)N7)cc5)cc4)cc23)c1 [Example 49, (R)-6-((4′-(3-((2-hydroxy-2-(5-hydroxy-3-oxo-3,4-dihydro-2H-benzo[b][1,4]oxazin-8-yl)ethyl)amino)propyl)-[1,1′-biphenyl]-4-yl)sulfonyl)-4-((3-methoxyphenyl)amino)-8-methylquinoline-3-carboxamide]	< 100
< 100	< 100		COc1cccc(Nc2c(C(N)=O)cnc3c(C)cc(S(=O)(=O)c4cccc(C(=O)Nc5cccc(-c6ccc(CCCCNC[C@H](O)c7ccc(O)c8c7OCC(=O)N8)cc6)c5)c4)cc23)c1 [Example 22]	< 100
